Reference: patent US6767705B2, “Reagents and methods for identifying and modulating expression of genes regulated by retinoids” (The Board of Trustees of the University of Illinois, priority 2000, dated 2004)

Columns and labels:
MCF-7 cells [1] = assay: RT-PCR analysis of expression of retinoid-inducible genes in MCF-7 cells; format: cell-based, human
Experimental: FIGS. 2A through 2C show the results of RT-PCR analysis of changes in the expression of retinoid-inducible genes as described in Example 1. The identity of each gene is followed by the NCBI Accession Number (in parentheses). […] The designations “R5” and “R8” correspond to days 5 and 8 after release from 5-day RA treatment, respectively.
RT-PCR analysis was carried out essentially as described (Noonan et al., 1990, Proc. Natl. Acad. Sci. USA 87: 7160-7164), using β-actin as an internal normalization standard.

MCF-7 cells [2] = assay: cDNA microarray hybridization (Human UniGEM V) of RA-treated vs untreated MCF-7 cells; format: cell-based; conditions: 100 nM RA, 5 days
Experimental: To study gene expression changes, poly(A)+ RNA was isolated from untreated MCF-7 cells and from cells treated for 5 days with 100 nM RA. cDNA was prepared from these RNA populations and the cDNA hybridized with a cDNA microarray (Human UniGEM V cDNA microarray, Incyte Genomics, St. Louis, Mo.) that contains >7,000 cDNAs of different human genes and ESTs. cDNA probe synthesis, hybridization with the microarray and signal analyses were conducted by IncyteGenomics as a commercial service.

[3] = test system: MCF-7 human breast carcinoma cells; conditions: cited from earlier work
MCF-7 cells [4] = assay: Immunocytochemical and immunoblotting analysis of IGFBP-3, HIF2α/EPAS-1 and EPLIN proteins in MCF-7 cells; format: cell-based, human; conditions: 100 nM RA for 5 days, MCF-7 cells (FIG. 3A, 3B)
Experimental: FIG. 3A is a photomicrograph and FIG. 3B is a photograph of an immunoblot showing induction of IGFBP-3, HIF2α/EPAS-1 and EPLIN proteins in RA-treated cells.
Induction of three genes in this group was tested and confirmed at the protein level, by immunocytochemical assays, shown in FIG. 3A, using rabbit polyclonal antibody against EPLIN (a gift of Dr. David Chang, UCLA), and goat polyclonal antibodies against IGFBP-3 and EPAS-1/HIF-2α (Santa Cruz Biotechnology, Inc., Santa Cruz, Calif.) and standard techniques. Antibody staining was detected using Vectastain kit (Vector Labs, Burlingame, Calif.) according to the manufacturer's instructions.
The EPLIN gene encodes two protein isoforms. EPLINα and EPLINβ, with the larger (β) isoform showing a stronger growth-inhibitory effect. The observed induction of EPLIN gene expression was confirmed by immunocytochemical and immunoblotting assays (results shown in FIGS. 3A and 3B). These assays were performed using rabbit polyclonal antibody against EPLIN (a gift of Dr. David Chang, UCLA) and were carried out by standard techniques. Antibody staining was detected using Vectastain kit (Vector Labs) for immunocytochemistry and horseradish peroxidase-conjugated goat anti-rabbit IgG (Santa Cruz) for immunobloting.

MCF-7 cells [5] = assay: Clonogenic assay (colony formation / plating efficiency) of MCF-7 cells after RA treatment; format: cell-based, human
Experimental: FIGS. 1A and 1B are graphs showing the effects of retinoic acid (RA) on colony formation by MCF-7 cells. In each assay, 1.5×10^5 cells were plated per P100, in the absence or in the presence of RA. For clonogenic assays, cells were trypsinized after treatment, and 2,500 cells were plated per P100 and grown in drug-free media. […] Each point represents the mean and standard deviation for triplicate assays.
Clonogenic assays were performed to analyze the differences in proliferative capacity in MCF-7 cells after treatment with 100 nM RA for varying times. Cells were exposed to 100 nM RA for 1-7 days and tested for their capacity to form colonies after treatment at each time point. […] The decrease was initially rapid (from 100% to 40% plating efficiency after 2 days incubation with RA) and decreased more slowly to a final plating efficiency of about 10% at day 7.

p21 = conditions: retinoic acid-induced growth inhibition in MCF-7 cells; cited from earlier work
[6] = test system: xenografts of MCF-10T neo mammary epithelial cells; conditions: xenografts in vivo after treatment with fenretinide; cited from earlier work
[7] = 100 nM RA, MCF-7 cells (FIG. 2A)

CC1=C(/C=C/C(C)=C/C=C/C(C)=C/C(=O)O)C(C)(C)CCC1 [RA, all-trans retinoic acid]
time course of changes in RNA levels of the 13 genes (MCF-7 cells [1]; [7]): many of them increased their expression between days 1 and 4 of RA treatment
time to maximum expression of RNF (MCF-7 cells [1]; [7]): maximum expression after just one day of treatment
RA dose-dependence of gene expression of the 13 genes (MCF-7 cells [1]; 40 hr treatment, lowest dose 10 nM, MCF-7 cells (FIG. 2B)): almost all of these genes were induced even by the lowest (10 nM) dose
induction of 13 upregulated genes by RT-PCR (MCF-7 cells [1]; RA-treated MCF-7 cells, printed as '5-10 fold or more' (FIGS. 2A, 2B)): 5-10 fold
decrease in balanced differential expression, 20 genes (MCF-7 cells [2]): 1.7-3.0 fold
increase in balanced differential expression, 27 genes (MCF-7 cells [2]): 1.4-2.5 fold
maximum decrease in relative hybridization intensity of any gene in the microarray (MCF-7 cells [2]): ≤ 3 fold
maximum increase in relative hybridization intensity of any gene in the microarray (MCF-7 cells [2]): ≤ 2.5 fold
continuous exposure required for the growth arrest effect to become apparent ([3]; low dose RA (between 10-100 nM), MCF-7 cells): 4 to 6 days
growth arrest and cell death in MCF-7 cells ([3]; relatively low doses of RA (between 10-100 nM)): induce irreversible growth arrest in MCF-7 cells, while producing only a minor reduction in cell numbers caused by cell death
expression of IGFBP-3, EPAS-1/HIF2α and EPLIN proteins (MCF-7 cells [4]): increased expression of the corresponding proteins
plating efficiency, normalized to untreated control (MCF-7 cells [5]; 100 nM RA, after 2 days incubation, MCF-7 cells (FIG. 1A)): 40%
final plating efficiency, normalized to untreated control (MCF-7 cells [5]; 100 nM RA, day 7, MCF-7 cells (FIG. 1A)): about 10%
plating efficiency at varying concentrations of RA (MCF-7 cells [5]; 40 hr treatment, indicated doses, lowest 10 nM, MCF-7 cells (FIG. 1B)): dose-dependent reduction in plating efficiency at all tested doses (as low as 10 nM)
induction of p21 (p21): does not induce p21

CC1=C(/C=C/C(C)=C/C=C/C(C)=C/C(=O)Nc2ccc(O)cc2)C(C)(C)CCC1 [fenretinide, 4-hydroxyphenylretinamide]
induction of the 13 genes (MCF-7 cells [1]; 1 μM fenretinide, MCF-7 cells (FIG. 2C)): All 13 genes were also induced
induction of senescence-associated marker SA-β-gal [6]: Induction of SA-β-gal was also observed
